{"source": "patent US20160279187A1", "about": "“CALPAIN INHIBITORS FOR IBD AND COLORECTAL CANCER TREATMENT” (UNIVERSITY OF HAWAII, priority 2013, published 2016)", "type_in_all_cases": "cell-based", "key": {"[1]": {"tested_on": "Akt phosphorylation / FAK cleavage in macrophages", "assay": "other m-calpain regulated pathways in macrophages (Akt, FAK)"}, "[2]": {"target": "T1, M-Calpain activity in CT-26 WT cells (Mus musculus, UniProt O08529)", "T1 construct": "endogenous in cells; host or cells: CT-26.WT mouse colon cancer cells", "T1 sequence (O08529 20-700 limits assumed)": "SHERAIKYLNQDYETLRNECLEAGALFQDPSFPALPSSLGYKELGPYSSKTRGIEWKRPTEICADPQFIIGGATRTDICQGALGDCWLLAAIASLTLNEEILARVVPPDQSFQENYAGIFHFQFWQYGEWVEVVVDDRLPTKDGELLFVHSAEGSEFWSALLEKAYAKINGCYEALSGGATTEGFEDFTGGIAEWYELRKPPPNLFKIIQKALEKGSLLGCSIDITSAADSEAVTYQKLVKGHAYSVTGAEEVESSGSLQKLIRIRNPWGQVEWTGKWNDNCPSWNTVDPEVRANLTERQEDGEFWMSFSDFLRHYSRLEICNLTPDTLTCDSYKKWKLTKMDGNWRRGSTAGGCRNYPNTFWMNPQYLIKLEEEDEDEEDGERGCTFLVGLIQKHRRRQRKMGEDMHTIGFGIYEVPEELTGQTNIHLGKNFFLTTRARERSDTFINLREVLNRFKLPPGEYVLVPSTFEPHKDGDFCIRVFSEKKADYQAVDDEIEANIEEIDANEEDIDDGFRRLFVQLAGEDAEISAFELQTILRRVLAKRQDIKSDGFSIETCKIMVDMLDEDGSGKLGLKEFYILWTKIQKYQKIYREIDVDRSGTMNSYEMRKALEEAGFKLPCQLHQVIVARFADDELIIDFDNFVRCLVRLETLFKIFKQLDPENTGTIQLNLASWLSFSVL", "T1 sequence (O88456 1-268 partner)": "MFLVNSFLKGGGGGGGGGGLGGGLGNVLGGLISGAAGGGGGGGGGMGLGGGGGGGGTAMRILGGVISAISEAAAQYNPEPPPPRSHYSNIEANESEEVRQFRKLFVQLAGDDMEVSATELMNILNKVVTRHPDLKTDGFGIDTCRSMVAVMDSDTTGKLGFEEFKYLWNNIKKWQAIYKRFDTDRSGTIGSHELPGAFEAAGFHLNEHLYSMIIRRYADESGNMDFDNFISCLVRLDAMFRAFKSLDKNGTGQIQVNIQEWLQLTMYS", "assay": "Calpain Activity Assay Kit (BioVision), CT-26.WT", "conditions": "vs DMSO, 1 hour", "description": "(§1) Bone marrow derived macrophages (BMDM) were prepared as previously described by methods known to those skilled in the art. On day 5 of culture, 2×10^6 BMDM were seeded in 6-well plates and the following day were primed for 18 h with TNFα (20 ng/mL), followed by 1 h stimulation with E. faecalis (1 μg/mL; ATCC). Stimulation with E. faecalis was conducted in the presence of the zLLY-CH2F calpain-2 inhibitor (20 μg/mL) or DMSO as a control. Media was removed from treated BMDM, centrifuged at 300×g for 5 min and supernatent analyzed using the Cytometric Bead Array Mouse Inflammation Kit (BD Biosciences, San Jose, Calif.). Cytokine data were analyzed using Flowjo software (Ashland, Oreg.) and GraphPad Prism version 4.0 (GraphPad, La Jolla, Calif.). Cell pellets were lysed and analyzed for IκB and NFκB by Western blot as previously described (Miyazaki, T. et al. Journal of Atherosclerosis and Thrombosis 20, 228-237, 2013). […] Each day 4 wells were quantified using Celltiter MTS reagent (Promega) and the resulting signal was used to generate a proliferation curve. Calpain activity was measured using a Calpain activity assay kit (BioVision, Inc., Milpitas, Calif.) as previously described. Colons were harvested on day 4 and calpain activity measured. […]"}, "[3]": {"tested_on": "CT-26 WT mouse colon cancer cells", "assay": "proliferation assay (MTS), CT-26.WT", "conditions": "20 μg/ml, vs DMSO", "description": "as §1"}, "[4]": {"tested_on": "HT-29 human colorectal cancer cells", "assay": "proliferation assay (MTS), HT-29", "conditions": "HT-29, 20 μg/ml, vs DMSO", "description": "as §1"}}, "note": "Where a SMILES comes first, the peptide text is derived from it. The star is where a group is joined. Cbz = O=C(OCc1ccccc1)*; CH2F = FC*", "data": [{"smiles": "CC(C)C[C@H](NC(=O)OCc1ccccc1)C(=O)N[C@@H](CC(C)C)C(=O)N[C@@H](Cc1ccc(O)cc1)C(=O)CF", "note": "[zLLY-CH2F, Z-LLY-CH2F] (Cbz-Leu-Leu-Tyr-CH2F)", "values": [{"measurement": "FAK cleavage", "setting": "[1]", "value": "major effect"}, {"measurement": "phosphorylation of Akt", "setting": "[1]", "value": "inhibited"}, {"measurement": "M-Calpain activity", "setting": "[2]", "value": "reduced"}, {"measurement": "proliferation", "setting": "[3]", "value": "reduction"}, {"measurement": "proliferation", "setting": "[4]", "value": "reduction"}]}]}
